Test results published in BigSolDB 2.1.

O=C(O)CCP(=O)(O)c1ccccc1
Settings | solubility (mole fraction)
in 2-butanone, 293.16 K | 0.00061
in 2-butanone, 298.17 K | 0.00077
in 2-butanone, 303.18 K | 0.00103
in 2-butanone, 308.14 K | 0.00127
in 2-butanone, 313.16 K | 0.00163
in 2-butanone, 318.17 K | 0.00206
in 2-butanone, 323.16 K | 0.00253
in 2-butanone, 328.16 K | 0.00316
in 2-butanone, 333.15 K | 0.00395
in 2-ethoxyethanol, 293.16 K | 0.0461
in 2-ethoxyethanol, 298.17 K | 0.0512
in 2-ethoxyethanol, 303.18 K | 0.0571
in 2-ethoxyethanol, 308.14 K | 0.0638
in 2-ethoxyethanol, 313.16 K | 0.0709
in 2-ethoxyethanol, 318.17 K | 0.0777
in 2-ethoxyethanol, 323.16 K | 0.0849
in 2-ethoxyethanol, 328.16 K | 0.0937
in 2-ethoxyethanol, 333.15 K | 0.102
in acetic acid, 293.16 K | 0.0105
in acetic acid, 298.17 K | 0.0116
in acetic acid, 303.18 K | 0.013
in acetic acid, 308.14 K | 0.0147
in acetic acid, 313.16 K | 0.0164
in acetic acid, 318.17 K | 0.0182
in acetic acid, 323.16 K | 0.0205
in acetic acid, 328.16 K | 0.0225
in acetic acid, 333.15 K | 0.0249
in acetone, 293.16 K | 0.00074
in acetone, 298.17 K | 0.00093
in acetone, 303.18 K | 0.00124
in acetone, 308.14 K | 0.00153
in acetone, 313.16 K | 0.00197
in acetone, 318.17 K | 0.00248
in acetone, 323.16 K | 0.00305
in acetonitrile, 293.16 K | 6e-05
in acetonitrile, 298.17 K | 0.0001
in acetonitrile, 303.18 K | 0.00015
in acetonitrile, 308.14 K | 0.00023
in acetonitrile, 313.16 K | 0.00035
in acetonitrile, 318.17 K | 0.00053
in acetonitrile, 323.16 K | 0.00078
in acetonitrile, 328.16 K | 0.00109
in acetonitrile, 333.15 K | 0.00161
in benzene, 293.16 K | 0.00081
in benzene, 298.17 K | 0.00091
in benzene, 303.18 K | 0.00099
in benzene, 308.14 K | 0.00107
in benzene, 313.16 K | 0.00114
in benzene, 318.17 K | 0.00126
in benzene, 323.16 K | 0.00134
in benzene, 328.16 K | 0.00145
in benzene, 333.15 K | 0.00156
in chloroform, 288.15 K | 0.00021
in chloroform, 293.16 K | 0.00026
in chloroform, 298.17 K | 0.00033
in chloroform, 303.18 K | 0.00041
in chloroform, 308.14 K | 0.00052
in chloroform, 313.16 K | 0.00063
in chloroform, 318.17 K | 0.00079
in chloroform, 323.16 K | 0.00093
in chloroform, 328.16 K | 0.00112
in chloroform, 333.15 K | 0.00133
in cyclohexane, 293.16 K | 0.00088
in cyclohexane, 298.17 K | 0.00108
in cyclohexane, 303.18 K | 0.00128
in cyclohexane, 308.14 K | 0.00157
in cyclohexane, 313.16 K | 0.00186
in cyclohexane, 318.17 K | 0.00222
in cyclohexane, 323.16 K | 0.00263
in cyclohexane, 328.16 K | 0.00314
in cyclohexane, 333.15 K | 0.00371
in dichloromethane, 288.15 K | 0.00029
in dichloromethane, 293.16 K | 0.00042
in dichloromethane, 298.17 K | 0.00059
in dichloromethane, 303.18 K | 0.0008
in dichloromethane, 308.14 K | 0.00111
in dichloromethane, 313.16 K | 0.00149
in ethyl acetate, 293.16 K | 0.00128
in ethyl acetate, 298.17 K | 0.00148
in ethyl acetate, 303.18 K | 0.00162
in ethyl acetate, 308.14 K | 0.00182
in ethyl acetate, 313.16 K | 0.00202
in ethyl acetate, 318.17 K | 0.00226
in ethyl acetate, 323.16 K | 0.00254
in ethyl acetate, 328.16 K | 0.00281
in ethyl acetate, 333.15 K | 0.00311
in toluene, 293.16 K | 0.00051
in toluene, 298.17 K | 0.00059
in toluene, 303.18 K | 0.00068
in toluene, 308.14 K | 0.00079
in toluene, 313.16 K | 0.00092
in toluene, 318.17 K | 0.00105
in toluene, 323.16 K | 0.00119
in toluene, 328.16 K | 0.00138
in toluene, 333.15 K | 0.00154
in water, 298.25 K | 0.00178
in water, 308.66 K | 0.00366
in water, 318.07 K | 0.00671
in water, 327.17 K | 0.0133
in water, 337.55 K | 0.0249
in water, 342.75 K | 0.0339
in water, 345.06 K | 0.0412
in water, 349.47 K | 0.0568

O=P1(O)OCC2(CO1)COP(=O)(O)OC2 (stereo unspecified)
Settings | solubility (mole fraction)
in 1,4-dioxane, 293.16 K | 0.00025
in 1,4-dioxane, 298.17 K | 0.00028
in 1,4-dioxane, 303.16 K | 0.00031
in 1,4-dioxane, 308.17 K | 0.00035
in 1,4-dioxane, 313.16 K | 0.0004
in 1,4-dioxane, 318.18 K | 0.00045
in 1,4-dioxane, 323.16 K | 0.0005
in 1,4-dioxane, 328.16 K | 0.00055
in 1,4-dioxane, 333.17 K | 0.0006
in 1,4-dioxane, 338.15 K | 0.00066
in 2-butanone, 293.16 K | 0.0006
in 2-butanone, 298.17 K | 0.0007
in 2-butanone, 303.16 K | 0.0008
in 2-butanone, 308.17 K | 0.001
in 2-butanone, 313.16 K | 0.0011
in 2-butanone, 318.18 K | 0.0013
in 2-butanone, 323.16 K | 0.0015
in 2-butanone, 328.16 K | 0.0016
in 2-butanone, 333.17 K | 0.0018
in acetic acid, 293.16 K | 0.00017
in acetic acid, 298.17 K | 0.00022
in acetic acid, 303.16 K | 0.00026
in acetic acid, 308.17 K | 0.00032
in acetic acid, 313.16 K | 0.0004
in acetic acid, 318.18 K | 0.00048
in acetic acid, 323.16 K | 0.00057
in acetic acid, 328.16 K | 0.00067
in acetic acid, 333.17 K | 0.00078
in acetic acid, 338.15 K | 0.00092
in acetone, 295.75 K | 0.004
in acetone, 297.55 K | 0.0041
in acetone, 299.85 K | 0.0043
in acetone, 301.45 K | 0.0044
in acetone, 303.15 K | 0.0045
in acetone, 305.35 K | 0.0047
in acetone, 307.95 K | 0.0049
in acetone, 309.15 K | 0.005
in acetone, 313.35 K | 0.0053
in acetone, 317.15 K | 0.0057
in acetone, 319.15 K | 0.0058
in acetonitrile, 309.35 K | 0.0006
in acetonitrile, 311.25 K | 0.0007
in acetonitrile, 313.25 K | 0.0009
in acetonitrile, 315.45 K | 0.001
in acetonitrile, 317.35 K | 0.0012
in acetonitrile, 319.55 K | 0.0015
in acetonitrile, 321.55 K | 0.0017
in acetonitrile, 323.25 K | 0.002
in acetonitrile, 325.75 K | 0.0025
in acetonitrile, 327.45 K | 0.0028
in acetonitrile, 329.45 K | 0.0032
in acetonitrile, 331.55 K | 0.0038
in benzene, 293.16 K | 0.00031
in benzene, 298.17 K | 0.00038
in benzene, 303.16 K | 0.00047
in benzene, 308.17 K | 0.00059
in benzene, 313.16 K | 0.0007
in benzene, 318.18 K | 0.00088
in benzene, 323.16 K | 0.00103
in benzene, 328.16 K | 0.00123
in benzene, 333.17 K | 0.00146
in benzene, 338.15 K | 0.00176
in chloroform, 293.16 K | 0.00046
in chloroform, 298.17 K | 0.00054
in chloroform, 303.16 K | 0.00067
in chloroform, 308.17 K | 0.00081
in chloroform, 313.16 K | 0.00094
in chloroform, 318.18 K | 0.00114
in chloroform, 323.16 K | 0.00137
in chloroform, 328.16 K | 0.00163
in chloroform, 333.17 K | 0.00192
in chloroform, 338.15 K | 0.00222
in cyclohexane, 293.16 K | 0.00016
in cyclohexane, 298.17 K | 0.00019
in cyclohexane, 303.16 K | 0.00022
in cyclohexane, 308.17 K | 0.00025
in cyclohexane, 313.16 K | 0.00028
in cyclohexane, 318.18 K | 0.00032
in cyclohexane, 323.16 K | 0.00037
in cyclohexane, 328.16 K | 0.00041
in cyclohexane, 333.15 K | 0.00046
in cyclohexane, 338.15 K | 0.00052
in dichloromethane, 291.16 K | 0.00027
in dichloromethane, 295.18 K | 0.00032
in dichloromethane, 299.16 K | 0.00037
in dichloromethane, 303.19 K | 0.00045
in dichloromethane, 305.2 K | 0.00048
in dichloromethane, 309.15 K | 0.00056
in diethyl ether, 291.16 K | 0.00053
in diethyl ether, 295.18 K | 0.00073
in diethyl ether, 299.16 K | 0.00096
in diethyl ether, 303.19 K | 0.00124
in diethyl ether, 305.2 K | 0.0014
in ethyl acetate, 293.16 K | 0.00078
in ethyl acetate, 298.17 K | 0.00092
in ethyl acetate, 303.16 K | 0.00109
in ethyl acetate, 308.17 K | 0.00129
in ethyl acetate, 313.16 K | 0.00152
in ethyl acetate, 318.18 K | 0.00177
in ethyl acetate, 323.16 K | 0.00204
in ethyl acetate, 328.16 K | 0.00229
in ethyl acetate, 333.17 K | 0.00271
in ethyl acetate, 338.15 K | 0.00315
in toluene, 293.16 K | 0.00046
in toluene, 298.17 K | 0.00059
in toluene, 303.16 K | 0.00071
in toluene, 308.17 K | 0.00086
in toluene, 313.16 K | 0.00104
in toluene, 318.18 K | 0.00122
in toluene, 323.16 K | 0.00146
in toluene, 328.16 K | 0.00176
in toluene, 333.17 K | 0.00209
in toluene, 338.15 K | 0.00248
